Consider twelve compounds from the NIST ThermoML archive (doi:10.1021/je400885z).

Molecules are shown by their SMILES. Several values for one entry are separate records, joined by “and”; a condition that tells them apart may be missing. Equal values may be shown once. ± gives the expanded uncertainty stated by the source.

For this data set the following is noted: Liquid.

The vapor or sublimation pressure is the pressure of vapour in equilibrium with the condensed phase. With `CCOC(C)=O` [ethyl acetate], the “vapor or sublimation pressure” value worked out at 202.9 ± 2.6 kPa (373.15 K) and 687.53 ± 8.6 kPa (423.15 K).
Take `C=CCO` [2-propenol]: the “vapor or sublimation pressure” value was 113.1 ± 1.7 kPa and 109.94 ± 1.7 kPa and 109.95 ± 1.7 kPa (373.15 K); 520.67 ± 6.5 kPa and 518.64 ± 6.5 kPa and 518.11 ± 6.5 kPa (423.15 K).
For `O=C=O` [carbon dioxide], the “vapor or sublimation pressure” value runs as follows: (248.15 K) 1672.6 ± 21 kPa; (273.15 K) 3485.1 ± 43 kPa.
On to `S=C=S` [carbon disulfide], for which the “vapor or sublimation pressure” value (248.15 K) came to 4.5 ± 1 kPa and the “vapor or sublimation pressure” value (273.15 K) was determined as 17.3 ± 1 kPa.
In the case of `O=C=S` [carbonyl sulfide], the “vapor or sublimation pressure” value was 282.15 ± 3.6 kPa and 287.13 ± 3.7 kPa (248.15 K); 638.23 ± 8 kPa and 651.42 ± 8.2 kPa (273.15 K).
On to `O=Cc1ccco1` [2-furaldehyde], for which the “vapor or sublimation pressure” value reads like this: (373.15 K) 14.62 ± 1 kPa and 14.65 ± 1 kPa; (423.15 K) 77.51 ± 1.4 kPa and 76.13 ± 1.4 kPa.
With `CC(C)(C)O` [2-methylpropan-2-ol], the “vapor or sublimation pressure” value (373.15 K) is 192.46 ± 2.5 kPa and 191.18 ± 2.5 kPa; the “vapor or sublimation pressure” value (423.15 K) was 818.16 ± 10 kPa and 816.37 ± 10 kPa.
On to `CCCCO` [butan-1-ol], for which the “vapor or sublimation pressure” value is, setting by setting: (333.15 K) 8.39 ± 1 kPa; (393.15 K) 110.26 ± 1.6 kPa.
For the compound `NCCO` [2-aminoethan-1-ol], the “vapor or sublimation pressure” value is, setting by setting: (373.15 K) 6.16 ± 1 kPa and 6.17 ± 1 kPa and 6.64 ± 1 kPa; (423.15 K) 50.62 ± 1.2 kPa and 52.71 ± 1.2 kPa and 51.97 ± 1.2 kPa.
`COCC(C)O` (stereo unspecified) [1-methoxy-2-propanol]: the “vapor or sublimation pressure” value by setting is: (373.15 K) 50.45 ± 1.2 kPa and 48.26 ± 1.2 kPa and 48.55 ± 1.2 kPa; (423.15 K) 232.13 ± 3 kPa [middle of 4 runs]; (473.15 K) 739.81 ± 9.4 kPa.
With `CCCCC` [pentane], the “vapor or sublimation pressure” value (333.15 K) came out at 215.21 ± 2.8 kPa and the “vapor or sublimation pressure” value (393.15 K) is listed as 917.75 ± 11 kPa.
Take `CCCCOC(C)=O` [butyl ethanoate]: the “vapor or sublimation pressure” value was 44.71 ± 1.2 kPa and 42.55 ± 1.1 kPa (373.15 K); 195.63 ± 2.5 kPa and 188.81 ± 2.4 kPa and 191.33 ± 2.5 kPa (423.15 K); 583.23 ± 7.3 kPa (473.15 K).
